Where two headings read alike, the source gives them in different places. Residues, ends and D or L forms follow the SMILES beside them.
How the values were obtained:
K. pneumoniae LUH15104 = format: cell-based; conditions: for LC99.9 K. pneumoniae LUH15104 50% Plasma 2 h / LC99.9 K. pneumoniae LUH15104 RPMI 2 h: LUH15104, 2 h; for LC99.9 K. pneumoniae LUH15104 50% Plasma 18 h / LC99.9 K. pneumoniae LUH15104 RPMI 18 h: LUH15104, 18 h
Procedure: (§1) The bacterial strains used in this study included S. aureus JAR060131 [54] and the MDR ESKAPE pathogens Enterococcus faecium LUH15122, S. aureus LUH14616, Klebsiella pneumoniae LUH15104, A. baumannii RUH875 [55], Pseudomonas aeruginosa LUH15103, Enterobacter cloacae LUH15114, and the colistin-resistant Escherichia coli LUH15117. Before each experiment, bacteria from frozen stocks were cultured at 37 °C for 18–24 h on sheep blood agar plates (BioMérieux, Marcy-l’Étoile, France). All strains were then cultured from colonies either in tryptic soy broth (TSB; Oxoid, Basingstoke, UK) for A. baumannii, S. aureus, and E. faecium, or in brain heart infusion broth (BHI; Oxoid) for K. pneumoniae, P. aeruginosa, E. cloacae, and E. coli at 37 °C with shaking at 120 rpm for 18–24 h. Subsequently, bacteria were cultured to mid-logarithmic phase in the media described above at 37 °C with shaking at 120 rpm for 3 h. Bacteria were then washed twice with PBS and diluted to the required inoculum suspension concentration in Roswell Park Memorial Institute (RPMI)-1640 medium containing 20 mM HEPES and L-glutamine but without sodium bicarbonate (Sigma-Aldrich; hereafter referred to as RPMI), based on optical density at 620 nm. RPMI was selected because it supports bacterial growth without impairing AMP activity.
(§2) Bactericidal activity was assessed as described by de Breij et al.. Briefly, mid-logarithmic phase bacterial cultures were diluted to a final concentration of 1 × 10^7 colony-forming units (CFU)/mL in RPMI. Then, 10 µL was added to a final volume of 100 µL in RPMI (final concentration: 1 × 10^6 CFU/mL). Cultures were exposed to peptides either in RPMI or RPMI supplemented with 50% (v/v) human plasma (hereafter referred to as 50% plasma), obtained from four healthy volunteers after informed consent, frozen after collection, and pooled (Sanquin, Amsterdam, The Netherlands). Assays were performed in duplicate using round-bottom polypropylene microtiter plates (Costar, Arlington, VA, USA) and repeated three times. In the initial screening phase (Table 1, Table 2 and Table S1), peptide solutions of 1, 10, and 100 μM (final concentration) were tested against A. baumannii RUH875 and S. aureus JAR060131 in RPMI and in 50% plasma. After this selection process, two lead candidates, their RI variants, and reference peptides were tested with a final concentration range of 0.12 to 120 µM (two-fold dilutions) in RPMI and in 50% plasma (Table 3). The peptides were also tested against ESKAPE pathogens, with Synthetic Antimicrobial and Antibiofilm Peptide (SAAP)-148 as a reference peptide (Table 4).RPMI or 50% plasma served as no-treatment controls. After 2 and 18 h of incubation at 37 °C with shaking at 120 rpm in a humidified environment, the numbers of viable bacteria were quantified. Bactericidal activity was expressed as the lethal concentration 99.9% (LC99.9), defined as the lowest peptide concentration that killed ≥99.9% of bacteria within 2 h (LC99.9_2h) or 18 h (LC99.9_18h) compared to the initial inoculum.

S. aureus LUH14616 = format: cell-based; conditions: for LC99.9 S. aureus LUH14616 50% Plasma 2 h / LC99.9 S. aureus LUH14616 RPMI 2 h: LUH14616, 2 h; for LC99.9 S. aureus LUH14616 RPMI 18 h / LC99.9 S. aureus LUH14616 50% Plasma 18 h: LUH14616, 18 h
Procedure: as §1, §2

A. baumannii RUH875 = format: cell-based; conditions: for LC99.9 A. baumannii RUH875 50% Plasma 18 h: RUH875, 18 h; for LC99.9 A. baumannii RUH875 50% Plasma 2 h: RUH875, 2 h
Procedure: as §1, §2

S. aureus JAR060131 = format: cell-based; conditions: for LC99.9 S. aureus JAR060131 50% Plasma 18 h: JAR060131, 18 h
Procedure: as §1, §2

E. cloacae LUH15114 = format: cell-based; conditions: for LC99.9 E. cloacae LUH15114 50% Plasma 2 h / LC99.9 E. cloacae LUH15114 RPMI 2 h: LUH15114, 2 h
Procedure: as §1, §2

E. coli LUH15117 = format: cell-based; conditions: for LC99.9 E. coli LUH15117 RPMI 2 h: LUH15117, 2 h
Procedure: as §1, §2

[1] = test system: S. aureus JAR060131 biofilm; assay: Biofilm killing; format: cell-based, Staphylococcus aureus; conditions: for Concentration giving ≥3-log reduction of S. aureus biofilm CFU within 24 h: 24 h treatment, >3 log for BP2 and pexiganan; for Concentration giving ≥3-log reduction of S. aureus biofilm CFU within 2 h / Concentration giving complete eradication of S. aureus biofilm within 24 h: 24 h biofilm; for Concentration giving ≥3-log reduction of S. aureus biofilm CFU within 2 h: 2 h treatment in PBS; for Concentration giving complete eradication of S. aureus biofilm within 24 h: 24 h treatment in PBS
Procedure: Mid-logarithmic phase cultures of A. baumannii RUH875 or S. aureus JAR060131 were diluted to 1 × 10^8 CFU/mL in RPMI supplemented with 1% glucose. A total of 100 μL of each suspension was added to flat-bottom polystyrene 96-well microplates (Costar) and incubated under static conditions at 37 °C in a humidified atmosphere for 24 h to allow biofilm formation. After 24 h, planktonic bacteria were removed, and wells were carefully washed with 100 μL PBS [60]. […] Control samples were exposed to 100 μL of PBS only.
Biofilms were treated at 37 °C for either 2 or 24 h. […] Plates were sealed and sonicated for 5 min (Elmasonic, Singen, Germany; 45 kHz) at room temperature to dislodge adherent bacteria. […] Quantitative cultures were performed by plating serial 10-fold dilutions on sheep blood agar, and results were expressed as log10 CFU per well. The lower limit of detection was three CFU. Each condition was tested in six replicates.

[2] = test system: BJ human skin fibroblast cells; assay: LDH leakage assay (membrane integrity); conditions: lowest concentration causing >30% LDH leakage; BJ fibroblasts; 24 h; DMEM with 2% FBS; 0.05-60 µM
Procedure: BJ human skin fibroblast cells (ATCC CRL-2522; RRID: CVCL_3653; LGC Standards, Germany (September 2023)) were cultured in Dulbecco’s Modified Eagle Medium (DMEM; Gibco, Waltham, MA, USA) supplemented with 10% (v/v) foetal bovine serum (FBS; Sigma-Aldrich) and 1% (v/v) penicillin/streptomycin (pen/strep; Gibco). Cell suspensions (5 × 10^5 cells/mL) were seeded into 96-well plates (100 μL/well; Thermo Scientific, Waltham, MA, USA) and allowed to adhere for 24 h. Monolayers were then exposed to two-fold serial dilutions of GDST peptides, their RI variants, and reference peptides (final concentrations: 0.05 to 60 µM) in fresh DMEM with 2% (v/v) FBS for 24 h at 37 °C in a humidified atmosphere with 5% CO2.
Cell viability and membrane integrity were assessed using the water-soluble tetrazolium salt (WST-1; Roche, Basel, Switzerland) assay and the lactate dehydrogenase (LDH; Abcam, Cambridge, UK) assay, respectively, according to manufacturer instructions. Results were expressed as percentages of metabolic activity and LDH leakage relative to untreated control cells and the positive lysis control, respectively. The cytotoxic concentration was defined as the lowest peptide concentration causing <70% metabolic activity and >30% LDH leakage. All experiments were performed in triplicate.

Row | Compound | LC99.9 K. pneumoniae LUH15104 50% Plasma 2 h (K. pneumoniae LUH15104) | LC99.9 K. pneumoniae LUH15104 RPMI 2 h (K. pneumoniae LUH15104) | LC99.9 K. pneumoniae LUH15104 50% Plasma 18 h (K. pneumoniae LUH15104) | LC99.9 K. pneumoniae LUH15104 RPMI 18 h (K. pneumoniae LUH15104) | LC99.9 S. aureus LUH14616 50% Plasma 2 h (S. aureus LUH14616) | LC99.9 S. aureus LUH14616 RPMI 18 h (S. aureus LUH14616) | LC99.9 A. baumannii RUH875 50% Plasma 18 h (A. baumannii RUH875) | LC99.9 S. aureus JAR060131 50% Plasma 2 h (S. aureus JAR060131; JAR060131, 2 h) | LC99.9 S. aureus JAR060131 50% Plasma 18 h (S. aureus JAR060131) | LC99.9 E. cloacae LUH15114 50% Plasma 2 h (E. cloacae LUH15114) | LC99.9 E. cloacae LUH15114 RPMI 2 h (E. cloacae LUH15114) | LC99.9 E. coli LUH15117 RPMI 2 h (E. coli LUH15117) | LC99.9 E. coli LUH15117 RPMI 18 h (E. coli LUH15117; LUH15117, 18 h) | Concentration giving ≥3-log reduction of S. aureus biofilm CFU within 24 h [1] | Cytotoxicity LDH Leakage >30% [2] | LC99.9 S. aureus LUH14616 RPMI 2 h (S. aureus LUH14616) | LC99.9 S. aureus LUH14616 50% Plasma 18 h (S. aureus LUH14616) | LC99.9 A. baumannii RUH875 50% Plasma 2 h (A. baumannii RUH875) | LC99.9 S. aureus JAR060131 RPMI 2 h (S. aureus JAR060131; JAR060131, 2 h) | Concentration giving ≥3-log reduction of S. aureus biofilm CFU within 2 h [1] | further results
1 | CC[C@@H](C)[C@@H](NC(=O)[C@@H](C)NC(=O)[C@@H](CCCCN)NC(=O)[C@@H](CCCCN)NC(=O)[C@@H](Cc1c[nH]c2ccccc12)NC(=O)[C@@H](Cc1c[nH]c2ccccc12)NC(=O)[C@@H](CCCNC(=N)N)NC(=O)[C@@H](CC(C)C)NC(=O)[C@@H](CC(C)C)NC(C)=O)C(=O)N[C@H](CCCCN)C(=O)N[C@@H](C(=O)N[C@H](Cc1c[nH]c2ccccc12)C(=O)N[C@H](CCCNC(=N)N)C(=O)N[C@H](CCCCN)C(N)=O)C(C)C [GDST-038-RI] (HELM PEPTIDE1{[ac].[dL].[dL].[dR].[dW].[dW].[dK].[dK].[dA].[dI].[dK].[dV].[dW].[dR].[dK].[am]}$$$$V2.0; N-terminus and C-terminus assumed) | 15 µM | 15 µM | 3.75 µM | 7.5 µM | 30 µM | 0.47 µM | 0.94 µM | 3.75 µM | 3.75 µM | 60 µM | 30 µM | 3.75 µM | 0.94 µM | ≥ 60 µM | 3.75 µM |  |  |  |  |  | 
2 | Ac-KRWVKIAKKWWRLL-NH2 [GDST-038] | 7.5 µM | 3.75 µM | 3.75 µM | 3.75 µM | 7.5 µM | 0.94 µM | 0.47 µM |  | 0.94 µM | 60 µM | 3.75 µM | 0.94 µM |  | 120 µM | 3.75 µM | 0.94 µM | 0.94 µM | 0.94 µM | 0.94 µM | ≥ 60 µM | LC99.9 S. aureus JAR060131 50% Plasma 2 h (S. aureus JAR060131; 50% plasma, 2 h, median of three independent experiments): 1.88 µM; LC99.9 E. cloacae LUH15114 50% Plasma 18 h (E. cloacae LUH15114; 50% plasma, 18 h, median of three independent experiments): 1.88 µM; LC99.9 E. cloacae LUH15114 RPMI 18 h (E. cloacae LUH15114; RPMI, 18 h, median of three independent experiments): 1.88 µM; LC99.9 E. coli LUH15117 RPMI 18 h (E. coli LUH15117; colistin-resistant strain, RPMI, 18 h, median of three independent experiments): 1.88 µM; S. aureus biofilm CFU reduction within 2 h ([1]; 2 h treatment, concentration not given): 5.1 log CFU
3 | Ac-LKRVWKRVFKLLKRYWRQLKKPVR-NH2 (N-terminus and C-terminus assumed) [SAAP-148, reference compound] |  |  |  |  |  |  |  |  |  |  |  |  |  |  | 1.88 µM |  |  |  |  |  | E. cloacae eradicated at lower concentrations in plasma (E. cloacae LUH15114; 50% plasma vs RPMI, 18 h): 4 fold
4 | Ac-KRWVKILKKVWRFL-NH2 [GDST-045] | 15 µM | 0.94 µM | 7.5 µM | 1.88 µM | 15 µM | 0.94 µM | 0.94 µM | 3.75 µM | 1.88 µM | 60 µM | 1.88 µM | 0.94 µM | 0.94 µM |  | 3.75 µM | 0.94 µM | 1.88 µM | 1.88 µM | 0.94 µM | ≥ 7.5 µM | LC99.9 E. cloacae LUH15114 50% Plasma 18 h (E. cloacae LUH15114; LUH15114, 18 h): 30 µM; LC99.9 E. cloacae LUH15114 RPMI 18 h (E. cloacae LUH15114; LUH15114, 18 h): 1.88 µM; Concentration giving complete eradication of S. aureus biofilm within 24 h [1]: ≥ 30 µM
5 | CC[C@@H](C)[C@@H](NC(=O)[C@@H](CC(C)C)NC(=O)[C@@H](CCCCN)NC(=O)[C@@H](CCCCN)NC(=O)[C@H](NC(=O)[C@@H](Cc1c[nH]c2ccccc12)NC(=O)[C@@H](CCCNC(=N)N)NC(=O)[C@@H](Cc1ccccc1)NC(=O)[C@@H](CC(C)C)NC(C)=O)C(C)C)C(=O)N[C@H](CCCCN)C(=O)N[C@@H](C(=O)N[C@H](Cc1c[nH]c2ccccc12)C(=O)N[C@H](CCCNC(=N)N)C(=O)N[C@H](CCCCN)C(N)=O)C(C)C [GDST-045-RI] (HELM PEPTIDE1{[ac].[dL].[dF].[dR].[dW].[dV].[dK].[dK].[dL].[dI].[dK].[dV].[dW].[dR].[dK].[am]}$$$$V2.0; N-terminus and C-terminus assumed) | 15 µM | 15 µM | 7.5 µM | 7.5 µM | 15 µM | 0.94 µM | 0.94 µM | 3.75 µM | 1.88 µM | 120 µM | 15 µM | 3.75 µM | 1.88 µM |  | 3.75 µM | 0.94 µM | 1.88 µM | 1.88 µM | 1.88 µM | ≥ 30 µM | LC99.9 E. cloacae LUH15114 50% Plasma 18 h (E. cloacae LUH15114; LUH15114, 18 h): 30 µM; LC99.9 E. cloacae LUH15114 RPMI 18 h (E. cloacae LUH15114; LUH15114, 18 h): 3.75 µM; Concentration giving complete eradication of S. aureus biofilm within 24 h [1]: 120 µM

— PMC12649225, “Machine Learning-Identified Potent Antimicrobial Peptides Against Multidrug-Resistant Bacteria and Skin Infections” (Antibiotics, 2025)
